Data on four compounds can be found in ChEMBL document CHEMBL1201862, “PubChem BioAssay data set” (2004).

For one assay, the target named is Kallikrein-7 (Homo sapiens, UniProt P49862). Put plainly: Fluorescence Intensity-based biochemical primary high throughput dose response assay to identify activators of kallikrein-7 (K7) zymogen.
The target in another assay is T1, Caspase-3 (Homo sapiens, UniProt P42574).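 Also: Dose-response selectivity test against caspase-3 for candidate inhibitors of sentrin-specific proteases (SENPs).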
T1 sequence (P42574 whole entry): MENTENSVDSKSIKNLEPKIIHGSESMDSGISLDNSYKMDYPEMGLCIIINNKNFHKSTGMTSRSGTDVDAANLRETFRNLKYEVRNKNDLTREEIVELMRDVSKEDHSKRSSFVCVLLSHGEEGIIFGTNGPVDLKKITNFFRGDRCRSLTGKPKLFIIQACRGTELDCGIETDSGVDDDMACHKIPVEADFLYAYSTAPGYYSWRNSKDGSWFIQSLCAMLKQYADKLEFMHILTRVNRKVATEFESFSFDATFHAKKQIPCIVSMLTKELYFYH
It is filed as functional.

The target in assay [1] is T2, Sentrin-specific protease 7 (Homo sapiens, UniProt Q9BQF6).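 Also: Luminescence-based dose-response confirmation of ultra-high-throughput screening hits, measuring inhibition of SENP7.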
T2 sequence (Q9BQF6 whole entry): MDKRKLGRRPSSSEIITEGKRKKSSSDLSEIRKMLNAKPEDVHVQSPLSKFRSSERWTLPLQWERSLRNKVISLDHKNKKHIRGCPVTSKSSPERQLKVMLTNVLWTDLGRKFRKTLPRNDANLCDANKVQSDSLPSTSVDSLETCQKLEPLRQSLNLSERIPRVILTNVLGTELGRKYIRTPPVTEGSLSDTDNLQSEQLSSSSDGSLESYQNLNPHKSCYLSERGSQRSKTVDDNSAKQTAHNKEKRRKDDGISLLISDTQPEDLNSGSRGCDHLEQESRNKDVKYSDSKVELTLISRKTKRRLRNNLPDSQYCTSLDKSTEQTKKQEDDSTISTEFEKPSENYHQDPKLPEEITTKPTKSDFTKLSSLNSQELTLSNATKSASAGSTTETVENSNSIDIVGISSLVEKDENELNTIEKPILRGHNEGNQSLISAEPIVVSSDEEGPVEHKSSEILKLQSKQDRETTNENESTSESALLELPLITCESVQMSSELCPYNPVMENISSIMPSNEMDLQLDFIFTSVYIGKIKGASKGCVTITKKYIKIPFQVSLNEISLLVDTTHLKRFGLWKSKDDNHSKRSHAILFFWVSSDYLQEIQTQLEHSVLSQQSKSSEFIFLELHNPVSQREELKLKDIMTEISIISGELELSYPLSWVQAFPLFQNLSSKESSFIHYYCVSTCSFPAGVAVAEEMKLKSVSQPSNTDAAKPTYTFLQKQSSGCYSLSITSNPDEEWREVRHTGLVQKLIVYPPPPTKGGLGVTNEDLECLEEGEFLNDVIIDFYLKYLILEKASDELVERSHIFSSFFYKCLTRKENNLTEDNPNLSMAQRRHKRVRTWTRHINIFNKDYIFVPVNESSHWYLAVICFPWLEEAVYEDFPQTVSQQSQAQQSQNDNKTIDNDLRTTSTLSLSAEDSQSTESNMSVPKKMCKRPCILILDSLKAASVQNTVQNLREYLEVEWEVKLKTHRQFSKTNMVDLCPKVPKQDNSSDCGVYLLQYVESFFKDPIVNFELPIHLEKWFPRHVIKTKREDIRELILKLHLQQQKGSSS
It is filed as functional.

Assay [2] deals with T3, Sentrin-specific protease 6 (Homo sapiens, UniProt Q9GZR1).
T3 sequence (Q9GZR1 whole entry): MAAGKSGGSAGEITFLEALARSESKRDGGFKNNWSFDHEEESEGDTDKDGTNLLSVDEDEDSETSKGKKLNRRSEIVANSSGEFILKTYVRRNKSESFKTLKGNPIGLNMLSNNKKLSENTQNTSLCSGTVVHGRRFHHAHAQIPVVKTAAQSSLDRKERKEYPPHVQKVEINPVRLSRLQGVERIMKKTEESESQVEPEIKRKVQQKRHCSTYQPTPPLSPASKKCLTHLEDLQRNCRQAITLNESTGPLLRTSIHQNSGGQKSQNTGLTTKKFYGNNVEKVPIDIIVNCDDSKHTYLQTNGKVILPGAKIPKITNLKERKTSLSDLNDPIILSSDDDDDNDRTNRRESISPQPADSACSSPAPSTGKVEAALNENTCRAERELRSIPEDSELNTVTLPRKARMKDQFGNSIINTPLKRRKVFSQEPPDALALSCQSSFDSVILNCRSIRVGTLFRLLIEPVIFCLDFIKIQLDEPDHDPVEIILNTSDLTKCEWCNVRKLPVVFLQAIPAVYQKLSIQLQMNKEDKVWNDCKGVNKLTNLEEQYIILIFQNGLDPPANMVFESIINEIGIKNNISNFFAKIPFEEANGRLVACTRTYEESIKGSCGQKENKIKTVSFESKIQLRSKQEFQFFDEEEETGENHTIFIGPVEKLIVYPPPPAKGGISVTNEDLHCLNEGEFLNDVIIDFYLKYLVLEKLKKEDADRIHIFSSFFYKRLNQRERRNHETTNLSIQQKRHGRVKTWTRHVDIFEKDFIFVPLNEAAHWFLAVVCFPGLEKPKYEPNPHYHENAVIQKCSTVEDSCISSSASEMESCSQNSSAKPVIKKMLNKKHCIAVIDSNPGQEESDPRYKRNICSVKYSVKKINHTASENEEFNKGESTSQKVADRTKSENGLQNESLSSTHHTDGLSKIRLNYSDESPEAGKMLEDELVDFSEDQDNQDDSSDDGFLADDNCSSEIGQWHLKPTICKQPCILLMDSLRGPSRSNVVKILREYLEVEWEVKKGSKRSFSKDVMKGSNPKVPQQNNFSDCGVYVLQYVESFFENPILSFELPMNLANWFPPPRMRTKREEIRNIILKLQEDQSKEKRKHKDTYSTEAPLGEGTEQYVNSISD
The class given is functional.

Assay [3] concerns the target T4, Sentrin-specific protease 8 (Homo sapiens, UniProt Q96LD8).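 Also: luminescence read-out of SENP8 inhibition, dose-response confirmation following an ultra-high-throughput screen.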
T4 sequence (Q96LD8 whole entry): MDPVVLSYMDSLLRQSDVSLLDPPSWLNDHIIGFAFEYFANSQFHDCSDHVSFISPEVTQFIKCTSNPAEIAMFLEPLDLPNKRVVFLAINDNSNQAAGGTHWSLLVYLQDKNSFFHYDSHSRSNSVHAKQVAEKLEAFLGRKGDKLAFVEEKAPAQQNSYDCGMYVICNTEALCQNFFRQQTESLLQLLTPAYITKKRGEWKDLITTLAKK
The class given is functional.

Assay [4] in a line: Artemis endonuclease inhibitor potency, dose response, biochemical, fluorescence intensity (AID 720701).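 Also: Artemis endonuclease enzyme.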 It is filed as functional.
The next assay deals with Paired box protein Pax-8 (Homo sapiens, UniProt Q06710). Put plainly: inhibitors of PAX8-driven TPO luciferase reporter, dose response, RMG-I cells, cherry-pick (AID 687027).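 Also: luciferase reporter driven by Pax8 target thyroperoxidase promoter measured by SteadyGlo luminescence.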 The class given is functional, cell-based. (In a reporter assay the amount or activity of a reporter protein is the signal.)
Chain of Paired box protein Pax-8 (Q06710 whole entry): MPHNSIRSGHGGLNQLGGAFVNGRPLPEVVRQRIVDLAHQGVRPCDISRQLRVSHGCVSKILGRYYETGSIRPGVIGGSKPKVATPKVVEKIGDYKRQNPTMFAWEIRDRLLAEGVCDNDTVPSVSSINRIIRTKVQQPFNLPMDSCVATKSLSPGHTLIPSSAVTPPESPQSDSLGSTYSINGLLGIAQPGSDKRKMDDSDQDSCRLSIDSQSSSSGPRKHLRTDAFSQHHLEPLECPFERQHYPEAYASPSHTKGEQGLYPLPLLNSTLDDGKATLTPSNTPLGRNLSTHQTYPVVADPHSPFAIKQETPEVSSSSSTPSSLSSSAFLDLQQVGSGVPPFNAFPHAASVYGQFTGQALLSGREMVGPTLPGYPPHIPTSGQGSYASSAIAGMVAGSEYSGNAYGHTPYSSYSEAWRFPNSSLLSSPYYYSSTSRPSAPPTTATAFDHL
Assay [5] is described as follows: PAX2 cell-based inhibition, dose response, selectivity assay for PAX8 inhibitor project, plate reader, dry powder samples (AID 743048).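 Also: HEK293 cells carrying a WT1 promoter luciferase reporter driven by expressed Pax2; potency is for inhibition of Pax2 driven reporter signal.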 The class given is functional.
Assay [6] in a line: cytotoxicity in COV362 ovarian cancer cells, dose response, cytotoxicity control for PAX8 inhibitor project, cell-based, plate reader, dry powder, SA12 (AID 743144). The class given is functional.
The nature of assay [7]: IOSE-T80 ovarian epithelial cell cytotoxicity, dose response, cytotoxicity control for PAX8 inhibitor project, plate reader, dry powder samples (AID 743045). It is filed as functional, cell-based.
Assay [8] is described as follows: inhibitors of CMV-promoter luciferase reporter, dose response, counter-screen for Pax8 inhibitor project, cell-based, HEK293, luminescence, dry powder (AID 743020). It is filed as functional.
Assay [9] in a line: NIH:OVCAR-3 ovarian cancer cell cytotoxicity, dose response, PAX8 inhibitor project, plate reader, dry powder samples (AID 743044). It is filed as functional, cell-based.
Assay [10] can be described thus: PAX5 activity inhibitors, dose response, selectivity assay for PAX8 inhibitor project, cell-based, plate reader, dry powder samples (AID 743047).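 Also: HEK293 cells carrying a Pax5 driven CD19 promoter luciferase reporter; potency of inhibitors that lower reporter luminescence.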 It is filed as functional.
Assay [11] is described as follows: A549 cell cytotoxicity, dose response, cytotoxicity control, plate reader, cherry-pick, antagonist series (AID 743412). The class given is functional, cell-based.
Assay [12] is described as follows: HepG2 cell cytotoxicity, dose response, cytotoxicity control, plate reader, cherry-pick, antagonist series (AID 743416). The class given is functional, cell-based.
A short description of assay [13]: IGROV1 ovarian cancer cell cytotoxicity, dose response, PAX8 inhibitor project, plate reader, dry powder samples (AID 743043). The class given is functional, cell-based. Conditions: IGROV-1.
Assay [14] in a line: LGR2 antagonists, dose response, cell-based, HEK293, CRE-luciferase reporter, cherry pick, set 2 (AID 743343).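 Also: transfected cells were stimulated with diluted bursicon conditioned medium after compound addition.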 It is filed as functional.
A short description of assay [15]: cytotoxicity in COV434 cells, dose response, cytotoxicity control for PAX8 inhibitor project, cell-based, plate reader, dry powder, SA7 (AID 743145). It is filed as functional.
The nature of assay [16]: cytotoxicity in OV-90 ovarian cancer cells, dose response, PAX8 inhibitor project, cell-based, plate reader, dry powder, SA8 (AID 743149). It is filed as functional.
Assay [17] in a line: MC4R antagonists, dose response, counter-screen for LGR2 antagonist project, cell-based, plate reader, cherry pick (AID 743444).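 Also: transfected HEK 293 cells stimulated with alpha-MSH peptide; potency of inhibitors of the alpha-MSH evoked signal.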 The class given is functional. On the technique in general: The purpose of a counterscreen is to sort out artefacts and off-target activity.
Assay [18] can be described thus: cytotoxicity in OVCAR8 ovarian cancer cells, dose response, PAX8 project, cell-based, plate reader, dry powder samples (AID 743197). The class given is functional. Conditions: OVCAR-8.
The nature of assay [19]: cytotoxicity dependent on PAX8, dose response, cell-based, plate reader, dry powder (AID 743049). The class given is functional.
Assay [20] is described as follows: HEK293 cell cytotoxicity, dose response, cytotoxicity control, plate reader, cherry-picked samples (AID 743446). It is filed as functional, cell-based.
Assay [21] is described as follows: A2780 ovarian cancer cell cytotoxicity, dose response, cytotoxicity control, plate reader, dry powder samples (AID 743046). It is filed as functional, cell-based.

Molecules are shown by their SMILES. Calls of active or inactive are those of the source.

Chain of Kallikrein-7 (P49862 whole entry): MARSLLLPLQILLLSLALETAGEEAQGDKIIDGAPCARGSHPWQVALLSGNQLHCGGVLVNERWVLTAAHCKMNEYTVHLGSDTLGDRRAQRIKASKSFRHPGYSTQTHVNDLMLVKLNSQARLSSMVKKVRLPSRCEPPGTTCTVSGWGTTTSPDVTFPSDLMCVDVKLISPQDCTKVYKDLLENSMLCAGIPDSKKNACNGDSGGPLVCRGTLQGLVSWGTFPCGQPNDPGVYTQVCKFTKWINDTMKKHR

As usually defined, the EC50 is the concentration giving half of the maximal effect. Regarding `COc1ccc(-c2ccc3nnc(SCC(=O)NCC4CCCO4)n3n2)cc1` (configuration not stated), the EC50 on Kallikrein-7 was > 69.5 µM (inactive).
What is called IC50 is the concentration needed to halve the response being measured. As for `Brc1ccc(-c2cn3nc4c(nc3n2)CCCC4)cc1`, the IC50 was 17.4 µM (active) on Caspase-3; 21.2 µM (active) in assay [1]; 12.3 µM (active) in assay [2]; 17.7 µM (active) in [3]; > 20 µM (inactive) in [4].
Usually AC50 stands for the concentration giving half of the maximal activity seen. On to `N#C[C@@H]1[C@H](c2ccc(C#Cc3ccc(F)cc3)cc2)[C@@H](CO)N1C(=O)Nc1ccc(F)cc1`, for which the AC50 was 4.38 µM (active) at Paired box protein Pax-8; 12.9 µM (active) in assay [5]; 44.7 µM (active) in [6]; 24 µM (active) in assay [7]; 5.19 µM (active) in assay [8]; 30.9 µM (active) in assay [9]. Besides, the half-maximal activity concentration (AC50) in [10] is 15.8 µM (active); in assay [11] it was 14.3 µM (active); in [12], 16.8 µM (active); in [13], 23.1 µM (active); in assay [14], 34.4 µM (active); in [15] it was > 70 µM (inactive). Further, the AC50 in [16] is > 70 µM (inactive); in assay [17], 35.9 µM (active); in assay [18], 22.2 µM (active); in assay [19], 33.8 µM (active); in assay [20] it was 27.9 µM (active).
For the compound `C[C@@H]1CCCCO[C@H](CN(C)C(=O)c2ccccc2)[C@H](C)CN([C@@H](C)CO)C(=O)c2cc(NC(=O)Nc3ccc(C(F)(F)F)cc3)ccc2O1`, the AC50 is 6.57 µM (active) at Paired box protein Pax-8, 64.1 µM (active) in assay [21], 19.9 µM (active) in assay [9] and 34.4 µM (active) in [18].
